Measured values taken from article PMC8602566 (Frontiers in Oncology, 2021).

Key:
[1] = test system: Human glioblastoma cell line U251; assay: MTT cell viability assay, U251; type: cell-based; settings: U-251, MTT, 72 h, read-out: IC50 antiproliferative activity U251
Procedure: Cell viability was measured using the 3-(4,5-dimethylthiazol-2-yl)-2,5-diphenyltetrazolium bromide (MTT) assay and was expressed as a ratio to the absorbance value at 570 nm of the control cells.

[2] = Hepatic microsome stability assay, human; type: in vitro ADME; settings: human liver microsomes, NADPH, 37°C, pH 7.4
Procedure: (§1) Metabolic stability was assessed in the presence of human, mouse, and rat liver microsomes (XenoTech, Lenexa, KS, USA). All liquid dispenses and transfer steps were performed with the Freedom Evo automated liquid handler (Tecan US). Compound stock solutions were initially prepared in 100% DMSO and subsequently diluted in acetonitrile for the assay. The pH of the reactions was kept at 7.4 with potassium phosphate buffer. The reaction wells were prepared by adding microsomes to a well and allowed to warm to 37°C. Then, compound was added to each well. The reactions were […] by adding cofactor reduced nicotinamide adenine dinucleotide phosphate (NADPH) to the reaction well containing microsomes and compounds. Negative controls received buffer only. Immediately after reactions started, 0-min aliquots were promptly collected and mixed in a separate well with ice cold acetonitrile to quench the reactions. The remainder of the reaction volume was incubated at 37°C with shaking. An additional aliquot was collected at 60 min after the start of the reaction and promptly quenched with ice cold acetonitrile. Samples were vortexed and centrifuged at 3,500 rpm for 10 min. The amount of compound in the supernatant was determined by liquid chromatography–tandem mass spectrometry (LC/MS/MS) (Thermo Fischer Scientific, San Jose, CA, USA), and the percent of parent compound remaining after 60 min was calculated. Results are the mean of each reaction triplicate, normalized to the internal standard, and expressed as the percent of compound remaining after the incubation time.
(§2) Structures that are active in vitro may not be potent in vivo due to their susceptibility to metabolism in the body. We then thoroughly examined the liver microsomal metabolic stability of DMC-HA across three different species (Table 3). […] In addition, the half-life of DMC-HA in human microsome is generally two to three times longer than those in mice and rats. Collectively, the in vitro liver microsomal stability of DMC-HA is favorable, guaranteeing its further in vivo studies.

[3] = Hepatic microsome stability assay, rat; type: in vitro ADME; settings: rat liver microsomes, NADPH, 37°C, pH 7.4
Procedure: as §1, §2

Question: With `COc1cc(/C=C/C(=O)CC(=O)/C=C/c2ccc(/C=C/C(=O)NO)cc2)ccc1O` [DMC-HA] as the compound, how does the IC50 [1] read?
Answer: Its IC50 is 2990 ± 480 nM.

Question: What about the “Human Liver Microsomal Stability T1/2” value [2] of the same compound?
Answer: Its value is 1.53 h.

Question: And the microsomal CLint [2]?
Answer: The microsomal CLint was 17.5 µL/min/mg.

Question: What about the “Rat Liver Microsomal Stability T1/2” value [3] of the same compound?
Answer: Its value is 0.678 h.

Question: What about the microsomal CLint [3] of the same compound?
Answer: The microsomal CLint was 34.2 µL/min/mg.
